This note sets out measurements from patent US10010581B2, “Syndecan peptides and polypeptides and uses thereof” (Wisconsin Alumni Research Foundation, priority 2012, dated 2018).

Where no end group is shown, it is not given here.

Holding throughout (format): cell-based, human
The test system of assay [1] is HaCat keratinocytes or MCF10A mammary epithelial cells. Put plainly: competition of LPA-induced haptotactic migration by GST fusion proteins or synthetic peptides (FIG. 10 summary). The settings on record: 0.1 to 30 μM, 3 μM LPA. Here is the method: FIGS. 10A-C. Schematic summary of experiments using either recombinant GST fusion proteins or synthetic peptides to disrupt Sdc1-dependent coupling of HER2 to α6β4 integrin necessary for LPA-induced haptotactic migration. GST-fusion proteins or synthetic peptides were added at concentrations ranging from 0.1 to 30 μM to the culture medium of human HaCat keratinocytes or MCF10A mammary epithelial cells in the presence or absence of 3 μM LPA. The ability of the constructs to inhibit the migration of the cells to close a scratch wound in confluent monolayers was determined and expressed as the concentration of inhibitor necessary to cause 50% inhibition of cell migration. (FIG. 10A) Competition using recombinant GST-fusion proteins. GST-Sdc1 fusion proteins bearing truncations or mutations were assessed for their competitive activity. […] (FIG. 10B) Competition with synthetic peptides. Peptides were purchased from commercial sources for testing as a putative synstatin inhibitory peptide (SSTNHER2). […] (FIG. 10C) Schematic representation of the active site in Sdc1. The active site is shown as a juxtamembrane site in the ectodomain of Sdc1. TM is the transmembrane domain and CYTO is the cytoplasmic domain. The sequence of a peptide derived from this site (SSTNHER2) is shown along with its homology across other mammalian Sdc1 species. The human STTNHER2 sequence is SEQ ID NO:23; the homology for STTNHER2 across mammals is SEQ ID NO:24.
(§1) HaCat or MCF10A cells were grown to confluence on 48 well-plates were starved for 6 hr by serum deprivation followed by introduction of a scratch wound in the monolayer using 200 μl pipette tip. Cells were cultured an additional 18 hr in DMEM containing mAb 3E1 (10 μg/ml) and goat anti-mouse IgG (50 μg/ml), EGF (10 ng/ml) or HGF (20 ng/ml) to cause cell migration in the presence or absence of inhibitors. Images were acquired using a PlanApo 20 (0.75 numerical aperture) objective and a Photometrics CoolSnap ES camera on a Nikon Eclipse TE2000U microscopy system and wound closure quantified.

Another assay concerns HaCat keratinocytes. Put plainly: scratch wound haptotaxis induced by LPA and clustering of α6β4 integrin. Conditions: LPA + α6β4 clustered with mAb 3E1 and secondary antibody, AG825 10 μM, Iressa 1 μM. The source says: FIG. 6A-D. Sdc1 is required for HER2/α6β4-dependent HaCat keratinocyte migration. (FIG. 6A) HaCat keratinocytes deposit laminin 332 (LN332) and migrate upon this using α3β1 and α6β4 integrins to close a scratch wound in the monolayer when stimulated to undergo chemotaxis in response to EGF. Alternatively, migration is induced by clustering the integrin (using mAb 3E1 against the integrin+a secondary antibody to cluster the first antibody and thus the entire complex) in the presence of LPA. This mimics the clustering that occurs when the cells engage LN332 and is referred to as haptotaxis. […] (FIG. 6B) Haptotaxis, stimulated by LPA and clustering of α6β4 integrin as described in FIG. 6A, is blocked by antibody directed against the α3β1 integrin or by BM165 which targets the binding site for α3β1 in LN332. […] (FIG. 6C) The potential roles of Sdc1 or Sdc4 in haptotaxis is tested by silencing their expression, together with attempting to rescue with either wild-type mouse Sdc1 or Sdc4, or mouse mutants unable to engage the β4 cytoplasmic domain (mSdc1ΔC2 or mSdc4ΔC2). Haptotaxis is blocked by silencing endogenous Sdc1, and this cannot be rescued by Sdc1ΔC2 that fails to engage the α6β4 integrin. Silencing Sdc4 also disrupts migration, but this traces to its role in activity of the α3β1 integrin and not a role in engaging the α6β4 integrin, as it can be rescued by mSdc4ΔC2 that fails to associate with the α6β4 integrin. (FIG. 6D) Immunoprecipitation of either native mSdc4 or mSdc4[…]C2 confirms that the mSdc4ΔC2 mutant no longer associates with the α6β4 integrin, but does with the α3β1 integrin. […]
HaCat or MCF10A cells were grown to confluence on 48 well-plates were starved for 6 hr by serum deprivation followed by introduction of a scratch wound in the monolayer using 200 μl pipette tip. […] Images were acquired using a PlanApo 20 (0.75 numerical aperture) objective and a Photometrics CoolSnap ES camera on a Nikon Eclipse TE2000U microscopy system and wound closure quantified. […]

Assay [2] deals with MCF10A mammary epithelial cells. Put plainly: scratch wound haptotaxis induced by clustering the α6β4 integrin. The settings on record: α6β4 integrin clustered. Here is the method:
FIG. 9. Sdc1 ectodomain fragments and β4 dominant-negative mutant specific for Sdc1/α6β4/HER2 block MCF10A mammary epithelial cell migration. Haptotaxis of MCF10A human mammary epithelial cells induced by clustering the α6β4 integrin in a scratch wound assay is used to test the efficacy of inhibitors that target the Sdc1 mechanism. Cells are incubated either with entire recombinant syndecan ectodomains (Sdc1 ectodomain (S1ED) or Sdc4 ectodomain (S4ED) as a control), or an active fragment of mouse S1ED (S1ED^200-252) containing the inhibitory site.
as §1
The inventor used this assay to further truncate the S1ED recombinant proteins in order to find the smallest peptide that retains full inhibitory activity (e.g., SSTNHER2). The inventor tested mouse and human S1ED and find that they compete equally. […]

The subject of another assay is A431 cells. Put plainly: A431 cell attachment and spreading on LN332. The settings on record: 2 hr, mAb13 30 μg/ml, heparinase III 0.4 CU/ml, Sdc1 siRNA 100 nM. As to the method:
FIGS. 2A-E. Requirement of syndecan-1 for A431 cell spreading on LN332. A431 […] cells plated on slides coated with 10 μg/ml LN332 (FIG. 2A) without treatment; (FIG. 2B) with blocking antibody 3E1 to α6β4; (FIG. 2C) prior treatment with heparinase III; or (FIG. 2D) prior treatment with siRNA specific for human Sdc1. (FIG. 2E) Quantification of spread cells plated on LN332 and treated with blocking antibody to β1 integrin (mAb13 30 μg/ml) or control IgG (20 μg/ml), 3E1 blocking antibody (20 ug/ml) to β4 integrin, heparinase III (0.4 CU/ml) or human Sdc1 siRNA (100 nM). Data represent triplicate experiments +/−S.D. (Wang et al., 2010).
Nitrocellulose-coated 10-well glass slides (Erie Scientific, Portsmouth, N.H.) were prepared as described by Beauvais and. Rapraeger (2010). Wells of slide were coated at 37° C. for 2 h with mAb 3E1 (3 μg/ml), diluted in phosphate-buffered saline (CMF-PBS: 135 mM NaCl, 2.7 mM KCl, 10.2 mM Na2HPO47H2O, and 1.75 mM KH2PO4, pH 7.4), and blocked with serum-free Hepes-buffered DMEM (pH 7.4) containing 0.1% heat-denatured bovine serum albumin (plating medium). Cells were lifted with trypsin (0.25% w/v), washed with DMEM, and regenerated in suspension for 1 h at 37° C. in DMEM containing 10% fetal bovine serum. Cells were then plated in wells (50 μl/well) in plating medium at 10^5 cells/ml. […]

For the molecule “210-236: truncated synthetic peptide, amino acids 210-236 of human Sdc1 (DFTFETSGENTAVVAVEPDRRNQSPVD; UniProt P18827 210-236, looked up, fragment)”, the “competitive (inhibitory) activity on haptotactic migration” value in assay [1] is “loss of activity”.

For the molecule “214-240: truncated synthetic peptide, amino acids 214-240 of human Sdc1 (ETSGENTAVVAVEPDRRNQSPVDQGAT; UniProt P18827 214-240, looked up, fragment)”, the “competitive (inhibitory) activity on haptotactic migration” value in assay [1] is “loss of activity”.

Consider `COc1cc(/C=C(\C#N)C(N)=O)cc(CSc2nc3ccccc3s2)c1O` [AG825], for which the “haptotaxis (migration to close a scratch wound)” value (shortened to “haptotaxis”) in the assay on HaCat keratinocytes is reported as “blocks migration”.

With `COc1cc2ncnc(Nc3ccc(F)c(Cl)c3)c2cc1OCCCN1CCOCC1` [Iressa], in the assay on HaCat keratinocytes, the “haptotaxis” value is recorded as “without effect”.

With “S1ED^200-252: active fragment of mouse S1ED containing the inhibitory site, recombinant fusion protein (QLPAGEGSGEQDFTFETSGENTAVAAVEPGLRNQPPVDEGATGASQSLLDRKE; also: recombinant fusion protein, partner not given here; UniProt P18828 200-252, looked up, fragment)”, in assay [2], the “haptotaxis” value is given as “competes for haptotaxis”.

B1: heparinase: enzyme treatment that blocks the ability of Sdc1 to bind LN332 (protein, UniProt Q59289 25-659, looked up)
Heparin-sulfate lyase: QSSSITRKDFDHINLEYSGLEKVNKAVAAGNYDDAAKALLAYYREKSKAREPDFSNAEKPADIRQPIDKVTREMADKALVHQFQPHKGYGYFDYGKDINWQMWPVKDNEVRWQLHRVKWWQAMALVYHATGDEKYAREWVYQYSDWARKNPLGLSQDNDKFVWRPLEVSDRVQSLPPTFSLFVNSPAFTPAFLMEFLNSYHQQADYLSTHYAEQGNHRLFEAQRNLFAGVSFPEFKDSPRWRQTGISVLNTEIKKQVYADGMQFELSPIYHVAAIDIFLKAYGSAKRVNLEKEFPQSYVQTVENMIMALISISLPDYNTPMFGDSWITDKNFRMAQFASWARVFPANQAIKYFATDGKQGKAPNFLSKALSNAGFYTFRSGWDKNATVMVLKASPPGEFHAQPDNGTFELFIKGRNFTPDAGVFVYSGDEAIMKLRNWYRQTRIHSTLTLDNQNMVITKARQNKWETGNNLDVLTYTNPSYPNLDHQRSVLFINKKYFLVIDRAIGEATGNLGVHWQLKEDSNPVFDKTKNRVYTTYRDGNNLMIQSLNADRTSLNEEEGKVSYVYNKELKRPAFVFEKPKKNAGTQNFVSIVYPYDGQKAPEISIRENKGNDFEKGKLNLTLTINGKQQLVLVP
As for B1, in the assay with A431 cells, the “cell spreading on LN332” value was “disrupted”.
